Earlier results as cited in patent US20070237820A1, “Pharmaceutical formulations containing a non-steroidal antinflammatory drug and an antiulcerative drug” (Andrx Pharmaceuticals, LLC, priority 2004, published 2007).

Tests used:
[1] = patients on chronic use
[2] = NSAIDs such as diclofenac

SMILES	patients experiencing gross bleeding and ulceration [1]	patients with side effects that require cessation of medication [2]
CN1C(C(=O)Nc2ccccn2)=C(O)c2ccccc2S1(=O)=O [piroxicam]	up to 4%	
O=C(O)Cc1ccccc1Nc1c(Cl)cccc1Cl [diclofenac]		about 20%
